From patent publication US20250333424A1, “ANTIVIRAL COMPOUNDS” (Gilead Sciences, Inc., priority 2024, published 2025)

Tested on: monocytic THP1 cells infected with HIV VSV-G pseudotyped GFP-NEF reporter virus
Assay: cells
Format: cell-based
Conditions: Human immunodeficiency virus 1, THP-1, 24 h

SMILES | EC50 [µM]
Cc1cc([C@@H]2C[C@@H]2C#N)cc(C)c1Oc1nc(NC23CC(C#N)(C2)C3)nc2nn(C)cc12 (racemic) [Compound 131, (rac)-3-[[4-[4-[(1R,2S)-2-cyanocyclopropyl]-2,6-dimethyl-phenoxy]-2-methyl-pyrazolo[3,4-d]pyrimidin-6-yl]amino]bicyclo[1.1.1]pentane-1-carbonitrile] | 1.47
Cc1cc([C@H]2C[C@@H]2C#N)cc(C)c1Oc1nc(NC23CC(C#N)(C2)C3)nc2nn(C)cc12 (racemic) [Compound 132, (rac)-3-((4-(4-((1S,2S)-2-cyanocyclopropyl)-2,6-dimethylphenoxy)-2-methyl-2H-pyrazolo[3,4-d]pyrimidin-6-yl)amino)bicyclo[1.1.1]pentane-1-carbonitrile] | 0.267
Cc1cc([C@@H]2C[C@H]2C#N)cc(C)c1Oc1nc(NC23CC(C#N)(C2)C3)nc2nn(C)cc12 (racemic) [Compound 134, (rac)-3-((4-(4-((1R,2R)-2-cyanocyclopropyl)-2,6-dimethylphenoxy)-2-methyl-2H-pyrazolo[3,4-d]pyrimidin-6-yl)amino)bicyclo[1.1.1]pentane-1-carbonitrile] | 0.262
Cc1cc(/C=C/C#N)cc(C)c1Oc1nc(NC23CC(C#N)(C2)C3)nc2c1C1OCCCN1C2=O (racemic) [Compound 278, (E)-3-((4-(4-(2-cyanovinyl)-2,6-dimethylphenoxy)-10-oxo-4b,7,8,10-tetrahydro-6H-pyrimido[5′,4′:3,4]pyrrolo[2,1-b][1,3]oxazin-2-yl)amino)bicyclo[1.1.1]pentane-1-carbonitrile] | 0.0308
Cc1cc(/C=C/C#N)cc(C)c1Oc1nc(NC23CC(C#N)(C2)C3)nc2c1[C@@]1(C)O[C@H]3CC[C@H]3N1C2=O (relative stereo) [Compound 285, 3-(((4bR,5aS,7aR)-4-(4-((E)-2-cyanovinyl)-2,6-dimethylphenoxy)-4b-methyl-9-oxo-4b,5a,6,7,7a,9-hexahydrocyclobuta[4′,5′]oxazolo[3′,2′:1,5]pyrrolo[3,4-d]pyrimidin-2-yl)amino)bicyclo[1.1.1]pentane-1-carbonitrile] | 0.0925
Cc1cc(/C=C/C#N)cc(C)c1Oc1nc(NC23CC(C#N)(C2)C3)nc2nnn(C(F)F)c12 (single isomer, unassigned) [Compound 11, (E)-3-((7-(4-(2-cyanovinyl)-2,6-dimethylphenoxy)-1-(difluoromethyl)-1H-[1,2,3]triazolo[4,5-d]pyrimidin-5-yl)amino)bicyclo[1.1.1]pentane-1-carbonitrile] | 0.0277
Cc1cc(/C=C/C#N)cc(C)c1Oc1nc(NC23CC(C#N)(C2)C3)nc2nc(C)n(Cc3ccn[nH]3)c12 (single isomer, unassigned) [Compound 18, (E)-3-((7-((1H-pyrazol-5-yl)methyl)-6-(4-(2-cyanovinyl)-2,6-dimethylphenoxy)-8-methyl-7H-purin-2-yl)amino)bicyclo[1.1.1]pentane-1-carbonitrile] | 0.024
Cc1cc(/C=C/C#N)cc(C)c1Oc1nc(NC23CC(C#N)(C2)C3)nc2c1nc(C)n2Cc1ccn[nH]1 (single isomer, unassigned) [Compound 19, (E)-3-((9-((1H-pyrazol-5-yl)methyl)-6-(4-(2-cyanovinyl)-2,6-dimethylphenoxy)-8-methyl-9H-purin-2-yl)amino)bicyclo[1.1.1]pentane-1-carbonitrile] | 0.0909
Cc1cc(/C=C/C#N)cc(C)c1Oc1nc(NC23CC(C#N)(C2)C3)nc2nc(C)n(CC(F)F)c12 (single isomer, unassigned) [Compound 20, (E)-3-((6-(4-(2-cyanovinyl)-2,6-dimethylphenoxy)-7-(2,2-difluoroethyl)-8-methyl-7H-purin-2-yl)amino)bicyclo[1.1.1]pentane-1-carbonitrile] | 0.0255
Cc1cc(/C=C/C#N)cc(C)c1Oc1nc(NC23CC(C#N)(C2)C3)nc2c1nc(C)n2CC(F)F (single isomer, unassigned) [Compound 21, (E)-3-((6-(4-(2-cyanovinyl)-2,6-dimethylphenoxy)-9-(2,2-difluoroethyl)-8-methyl-9H-purin-2-yl)amino)bicyclo[1.1.1]pentane-1-carbonitrile] | 0.28
Cc1cc(/C=C/C#N)cc(C)c1Oc1nc(NC23CC(C#N)(C2)C3)nc2nn(C(F)F)nc12 (single isomer, unassigned) [Compound 22, (E)-3-((7-(4-(2-cyanovinyl)-2,6-dimethylphenoxy)-2-(difluoromethyl)-2H-[1,2,3]triazolo[4,5-d]pyrimidin-5-yl)amino)bicyclo[1.1.1]pentane-1-carbonitrile] | 0.259
Cc1cc(/C=C/C#N)cc(C)c1Oc1nc(NC23CC(C#N)(C2)C3)nc2nn(C)c(Cl)c12 (single isomer, unassigned) [Compound 95, (E)-3-((3-chloro-4-(4-(2-cyanovinyl)-2,6-dimethylphenoxy)-1-methyl-11H-pyrazolo[3,4-d]pyrimidin-6-yl)amino)bicyclo[1.1.1]pentane-1-carbonitrile] | 0.0306
Cc1cc(/C=C/C#N)cc(C)c1Oc1nc(NC23CC(C#N)(C2)C3)nc2c1c(Cl)nn2C (single isomer, unassigned) [Compound 96, (E)-3-((3-chloro-4-(4-(2-cyanovinyl)-2,6-dimethylphenoxy)-1-methyl-11H-pyrazolo[3,4-d]pyrimidin-6-yl)amino)bicyclo[1.1.1]pentane-1-carbonitrile] | 0.36
Cc1cc([C@H]2C[C@@H]2C#N)cc(C)c1Oc1nc(NC23CC(C#N)(C2)C3)nc2nn(C)cc12 (single isomer, unassigned) [Compound 133] | 0.511
Cc1cc(/C=C/C#N)cc(C)c1Oc1nc(NC23CC(C#N)(C2)C3)nc2nc3n(c12)CCCO3 (single isomer, unassigned) [Compound 182, (E)-3-((4-(4-(2-cyanovinyl)-2,6-dimethylphenoxy)-7,8-dihydro-6H-[1,3]oxazino[2,3-f]purin-2-yl)amino)bicyclo[1.1.1]pentane-1-carbonitrile] | 0.0342
Cc1cc(/C=C/C#N)cc(C)c1Oc1nc(NC23CC(C#N)(C2)C3)nc2c1nc1n2CCCO1 (single isomer, unassigned) [Compound 183, (E)-3-((4-(4-(2-cyanovinyl)-2,6-dimethylphenoxy)-8,9-dihydro-7H-[1,3]oxazino[3,2-e]purin-2-yl)amino)bicyclo[1.1.1]pentane-1-carbonitrile] | 0.08
Cc1cc(/C=C/C#N)cc(C)c1Oc1nc(NC23CC(C#N)(C2)C3)nc2nc3n(c12)C[C@@H](F)CO3 (single isomer, unassigned) [Compound 191] | 0.0518

SMILES | EC50 [µM]
Cc1cc(/C=C/C#N)cc(C)c1Oc1nc(NC23CC(C#N)(C2)C3)nc2nc3n(c12)C[C@H](F)CO3 (single isomer, unassigned) [Compound 192] | 0.0271
Cc1cc(/C=C/C#N)cc(C)c1Oc1nc(NC23CC(C#N)(C2)C3)nc2nc3n(c12)C[C@@H](O)CO3 (single isomer, unassigned) [Compound 193] | 0.319
Cc1cc(/C=C/C#N)cc(C)c1Oc1nc(NC23CC(C#N)(C2)C3)nc2nc3n(c12)C[C@H](O)CO3 (single isomer, unassigned) [Compound 194] | 0.0497
Cc1cc(/C=C/C#N)cc(C)c1Oc1nc(NC23CC(C#N)(C2)C3)nc2c1[C@H]1OC[C@H](F)CN1C2=O (single isomer, unassigned) [Compound 281] | 0.0742
Cc1cc(/C=C/C#N)cc(C)c1Oc1nc(NC23CC(C#N)(C2)C3)nc2c1[C@@H]1OC[C@H](F)CN1C2=O (single isomer, unassigned) [Compound 282] | 0.0501
Cc1cc(/C=C/C#N)cc(C)c1Oc1nc(NC23CC(C#N)(C2)C3)nc2c1[C@@]1(C)O[C@@H]3CC[C@@H]3N1C2=O (single isomer, unassigned) [Compound 283] | 0.0448
Cc1cc(/C=C/C#N)cc(C)c1Oc1nc(NC23CC(C#N)(C2)C3)nc2c1[C@]1(C)O[C@@H]3CC[C@@H]3N1C2=O (single isomer, unassigned) [Compound 284] | 0.0349
CO[C@H]1COC2(C)c3c(Oc4c(C)cc(/C=C/C#N)cc4C)nc(NC45CC(C#N)(C4)C5)nc3C(=O)N2C1 (single isomer, unassigned) [Example 235] | 0.0228
Cc1cc(/C=C/C#N)cc(C)c1Oc1nc(NC23CC(C#N)(C2)C3)nc2c1C1(C)O[C@H](C)CCN1C2=O (single isomer, unassigned) [Example 242] | 0.0364
Cc1cc(/C=C/C#N)cc(C)c1Oc1nc(NC23CC(C#N)(C2)C3)nc2c1C1(C)OC[C@@H](C)CN1C2=O (single isomer, unassigned) [Example 243] | 0.219
CO[C@@H]1COC2(C)c3c(Oc4c(C)cc(/C=C/C#N)cc4C)nc(NC45CC(C#N)(C4)C5)nc3C(=O)N2C1 (single isomer, unassigned) [Example 244] | 0.111
Cc1cc(/C=C/C#N)cc(C)c1Oc1nc(NC23CC(C#N)(C2)C3)nc2c1C1(C)OC[C@H](C)CN1C2=O (single isomer, unassigned) [Example 245] | 0.0223
Cc1cc(/C=C/C#N)cc(C)c1Oc1nc(NC23CC(C#N)(C2)C3)nc2c1[C@]1(C)O[C@@H](C)CN1C2=O (single isomer, unassigned) [Example 248] | 0.121
Cc1cc(/C=C/C#N)cc(C)c1Oc1nc(NC23CC(C#N)(C2)C3)nc2c1[C@@]1(C)O[C@@H](C)CN1C2=O (single isomer, unassigned) [Example 249] | 0.0757
Cc1cc(/C=C/C#N)cc(C)c1Oc1nc(NC23CC(C#N)(C2)C3)nc2c1C1(C)O[C@H](C)CN1C2=O (single isomer, unassigned) [Example 251] | 0.0732
CO[C@H]1COC2c3c(Oc4c(C)cc(/C=C/C#N)cc4C)nc(NC45CC(C#N)(C4)C5)nc3C(=O)N2C1 (single isomer, unassigned) [Example 252] | 0.0771
CCOc1cc(/C=C/C#N)cc(Cl)c1Oc1nc(NC23CC(C#N)(C2)C3)nc2[nH]nc(C)c12 [Compound 3, (E)-3-((4-(2-chloro-4-(2-cyanovinyl)-6-ethoxyphenoxy)-3-methyl-11H-pyrazolo[3,4-d]pyrimidin-6-yl)amino)bicyclo[1.1.1]pentane-1-carbonitrile] | 0.0296
